Structures can show the parent of a compound that is named as a salt.
Biological target: T1, Full-length, GST-tagged, human CaMKIIδ (Homo sapiens, UniProt Q13557)
T1 construct: Full-Length, Glutathione-S-Transferase(GST)-Tagged, Human CaMKIIδ was purchased from Carna Biosciences; purchased Carna Biosciences 02-111
Assay: CaMKIIδ binding assay (TR-FRET with BODIPY-labeled probe ligand)
Settings: CaMKIIδ binding assay, results of Table 2
Method in brief: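 Compounds were tested as 4-fold, eight-point series for 1 hr at room temperature, and IC50 was obtained by logistic fitting against a 3 μM parent-compound control. Signal came from displacement of a 300 nM BODIPY ligand from 0.5 nM GST-CaMKIIδ, detected via Tb-anti-GST in calmodulin/Ca2+ (pH 7.6).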

T1 sequence (Q13557 1-478 isoform Q13557-12): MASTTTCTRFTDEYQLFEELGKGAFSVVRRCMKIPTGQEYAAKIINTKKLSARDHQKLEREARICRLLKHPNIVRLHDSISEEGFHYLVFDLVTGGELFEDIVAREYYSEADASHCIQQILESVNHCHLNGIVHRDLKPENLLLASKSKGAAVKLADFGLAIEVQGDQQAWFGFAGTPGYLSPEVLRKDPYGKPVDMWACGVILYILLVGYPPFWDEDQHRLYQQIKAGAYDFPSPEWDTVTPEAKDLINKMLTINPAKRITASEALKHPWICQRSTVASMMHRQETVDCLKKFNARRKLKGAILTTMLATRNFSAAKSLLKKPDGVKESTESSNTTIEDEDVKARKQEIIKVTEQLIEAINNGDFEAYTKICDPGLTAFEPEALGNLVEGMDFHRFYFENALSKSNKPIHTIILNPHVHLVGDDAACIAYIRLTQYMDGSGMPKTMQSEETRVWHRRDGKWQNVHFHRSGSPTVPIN

First: C[C@@H](Cn1cnnn1)Oc1cc(-c2cnc(Nc3cn(C4CCN(CCO)CC4)nc3C(F)(F)F)nc2)ccc1Cl [Example 535, (S)-2-(4-(4-((5-(3-((1-(1H-tetrazol-1-yl)propan-2-yl)oxy)-4-chlorophenyl)pyrimidin-2-yl)amino)-3-(trifluoromethyl)-1H-pyrazol-1-yl)piperidin-1-yl)ethan-1-ol]
Second: C[C@@H](Cn1cnnn1)Oc1cc(-c2cnc(Nc3cn(C4CCN(CC(F)(F)F)CC4)nc3C(F)(F)F)nc2)ccc1Cl [Example 486, (S)-5-(3-((1-(1H-tetrazol-1-yl)propan-2-yl)oxy)-4-chlorophenyl)-N-(1-(1-(2,2,2-trifluoroethyl)piperidin-4-yl)-3-(trifluoromethyl)-1H-pyrazol-4-yl)pyrimidin-2-amine]
The IC50 of the first is lower: < 10 nM for the first, 10 to 100 nM for the second. The first is the more potent here.

`COc1ccc(C(=O)O)cc1Nc1ncc(-c2ccc(Cl)c(O[C@@H](C)Cn3cnnn3)c2)cn1` [Example 540, (S)-3-((5-(3-((1-(1H-tetrazol-1-yl)propan-2-yl)oxy)-4-chlorophenyl)pyrimidin-2-yl)amino)-4-methoxybenzoic acid] and `COc1cc2c(cc1Nc1ncc(-c3ccc(Cl)c(O[C@@H](C)Cn4cnnn4)c3)cn1)N(C(C)=O)CC2` [Example 466, (S)-1-(6-((5-(3-((1-(1H-tetrazol-1-yl)propan-2-yl)oxy)-4-chlorophenyl)pyrimidin-2-yl)amino)-5-methoxyindolin-1-yl)ethan-1-one] cannot be ordered by IC50: ≥ 100 nM for the first, 10 to 100 nM for the second.

Same assay, conditions: CaMKIIδ binding assay; activity class per Table 2

`CC(Cn1cnnn1)Oc1cc(-c2cnc(Nc3cn(CC4(O)CCC(C)(O)CC4)nc3OCC(F)(F)F)nc2)ccc1Cl` [Example 923, trans-1-((4-((5-(3-(((S)-1-(1H-tetrazol-1-yl)propan-2-yl)oxy)-4-chlorophenyl)pyrimidin-2-yl)amino)-3-(2,2,2-trifluoroethoxy)-1H-pyrazol-1-yl)methyl)-4-methylcyclohexane-1,4-diol] and `C[C@@H](Cn1cnnn1)Oc1cc(-c2cnc(Nc3cn(CC4(O)CCN(C)CC4)nc3C(F)(F)F)nc2)ccc1Cl` [Example 891, (S)-4-((4-((5-(3-((1-(1H-tetrazol-1-yl)propan-2-yl)oxy)-4-chlorophenyl)pyrimidin-2-yl)amino)-3-(trifluoromethyl)-1H-pyrazol-1-yl)methyl)-1-methylpiperidin-4-ol] cannot be ordered by IC50: < 10 nM for the first, < 10 nM for the second.

`CC(C)c1nn(C2CC3(C2)CN(C2COCOC2)C3)cc1Nc1ncc(-c2ccc(Cl)c(O[C@@H](C)Cn3cnnn3)c2)cn1` [Example 1013, (S)-N-(1-(2-(1,3-dioxan-5-yl)-2-azaspiro[3.3]heptan-6-yl)-3-isopropyl-1H-pyrazol-4-yl)-5-(3-((1-(1H-tetrazol-1-yl)propan-2-yl)oxy)-4-chlorophenyl)pyrimidin-2-amine] and `C[C@@H](Cn1cnnn1)Oc1cc(-c2cnc(Nc3cn(CC4(O)CCN(C5CCOCC5)CC4)nc3C(F)(F)F)nc2)ccc1Cl` [Example 905, (S)-4-((4-((5-(3-((1-(1H-tetrazol-1-yl)propan-2-yl)oxy)-4-chlorophenyl)pyrimidin-2-yl)amino)-3-(trifluoromethyl)-1H-pyrazol-1-yl)methyl)-1-(tetrahydro-2H-pyran-4-yl)piperidin-4-ol] cannot be ordered by IC50: < 10 nM for the first, < 10 nM for the second.

In the case of `C[C@@H](Cn1cnnn1)Oc1cc(-c2cnc(Nc3cn(C4CC5(C4)CN(C(=O)OC(C)(C)C)C5)nc3OCC(F)(F)F)nc2)ccc1C(F)F` [Example 948, tert-butyl (S)-6-(4-((5-(3-((1-(1H-tetrazol-1-yl)propan-2-yl)oxy)-4-(difluoromethyl)phenyl)pyrimidin-2-yl)amino)-3-(2,2,2-trifluoroethoxy)-1H-pyrazol-1-yl)-2-azaspiro[3.3]heptane-2-carboxylate], the IC50 is reported as ≥ 100 nM.

Same assay, conditions: Table 2; CaMKIIδ binding assay, activity given as class A/B/C

`C[C@@H](Cn1cnnn1)Oc1cc(-c2cnc(Nc3cn([C@H]4CC[C@H](N5[C@@H]6CC[C@H]5COC6)CC4)nc3OCC(F)F)nc2)ccc1Cl` [Example 844, 5-(3-(((S)-1-(1H-tetrazol-1-yl)propan-2-yl)oxy)-4-chlorophenyl)-N-(1-(trans-4-((1R,5S)-3-oxa-8-azabicyclo[3.2.1]octan-8-yl)cyclohexyl)-3-(2,2-difluoroethoxy)-1H-pyrazol-4-yl)pyrimidin-2-amine] and `C[C@@H](Cn1cnnn1)Oc1cc(-c2cnc(Nc3cn([C@H]4CC[C@@H](N5CCOCC5)CC4)nc3OCC(F)F)nc2)ccc1Cl` [Example 805, 5-(3-(((S)-1-(1H-tetrazol-1-yl)propan-2-yl)oxy)-4-chlorophenyl)-N-(3-(2,2-difluoroethoxy)-1-(cis-4-morpholinocyclohexyl)-1H-pyrazol-4-yl)pyrimidin-2-amine] cannot be ordered by IC50: < 10 nM for the first, < 10 nM for the second.

`C[C@@H](Cn1cnnn1)Oc1cc(-c2cnc(Nc3cn([C@H]4CC[C@H](N5CCOCC5)CC4)nc3OCC(F)(F)F)nc2)ccc1C#N` [Example 817, 2-(((S)-1-(1H-tetrazol-1-yl)propan-2-yl)oxy)-4-(2-((1-(trans-4-morpholinocyclohexyl)-3-(2,2,2-trifluoroethoxy)-1H-pyrazol-4-yl)amino)pyrimidin-5-yl)benzonitrile hydrochloride] and `C[C@@H](Cn1cnnn1)Oc1cc(-c2cnc(Nc3cn([C@H]4CC[C@H](N5CCOCC5)CC4)nc3OCC(F)F)nc2)ccc1F` [Example 835, 5-(3-(((S)-1-(1H-tetrazol-1-yl)propan-2-yl)oxy)-4-fluorophenyl)-N-(3-(2,2-difluoroethoxy)-1-(trans-4-morpholinocyclohexyl)-1H-pyrazol-4-yl)pyrimidin-2-amine] cannot be ordered by IC50: < 10 nM for the first, < 10 nM for the second.

With `Cc1cc(Nc2ncc(-c3ccc(Cl)c(O[C@@H](C)Cn4cnnn4)c3)cn2)n(CCC#N)n1` [Example 746, (S)-3-(5-((5-(3-((1-(1H-tetrazol-1-yl)propan-2-yl)oxy)-4-chlorophenyl)pyrimidin-2-yl)amino)-3-methyl-1H-pyrazol-1-yl)propanenitrile] the IC50 was ≥ 100 nM.

Same assay, conditions: Table 2; activity class for CaMKIIδ

`C[C@@H](Cn1cnnn1)Oc1cc(-c2cnc(Nc3cn(Cc4ccccn4)nc3C(F)(F)F)nc2)ccc1Cl` [Example 707, (S)-5-(3-((1-(1H-tetrazol-1-yl)propan-2-yl)oxy)-4-chlorophenyl)-N-(1-(pyridin-2-ylmethyl)-3-(trifluoromethyl)-1H-pyrazol-4-yl)pyrimidin-2-amine] and `C[C@@H](Cn1cnnn1)Oc1cc(-c2cnc(Nc3cn(Cc4n[nH]c(=O)[nH]4)nc3C(F)(F)F)nc2)ccc1Cl` [Example 722, (S)-5-((4-((5-(3-((1-(1H-tetrazol-1-yl)propan-2-yl)oxy)-4-chlorophenyl)pyrimidin-2-yl)amino)-3-(trifluoromethyl)-1H-pyrazol-1-yl)methyl)-2,4-dihydro-3H-1,2,4-triazol-3-one] cannot be ordered by IC50: 10 to 100 nM for the first, ≥ 100 nM for the second.

`C[C@@H](Cn1cnnn1)Oc1cc(-c2cnc(Nc3cn(CC4CCCN(C)C4)nc3C(F)(F)F)nc2)ccc1Cl` (stereo partly drawn) [Example 635, 5-(3-(((S)-1-(1H-tetrazol-1-yl)propan-2-yl)oxy)-4-chlorophenyl)-N-(1-((1-methylpiperidin-3-yl)methyl)-3-(trifluoromethyl)-1H-pyrazol-4-yl)pyrimidin-2-amine] and `C[C@@H](Cn1cnnn1)Oc1cc(-c2cnc(Nc3cn(CCOC(F)(F)F)nc3C(F)(F)F)nc2)ccc1Cl` [Example 727, (S)-5-(3-((1-(1H-tetrazol-1-yl)propan-2-yl)oxy)-4-chlorophenyl)-N-(1-(2-(trifluoromethoxy)ethyl)-3-(trifluoromethyl)-1H-pyrazol-4-yl)pyrimidin-2-amine] fall in the same range of IC50: 10 to 100 nM for the first, 10 to 100 nM for the second.

Going from `C[C@@H](Cn1cnnn1)Oc1cc(-c2cnc(Nc3cc(C(F)(F)F)n(C)n3)nc2)ccc1Cl` [Example 711, (S)-5-(3-((1-(1H-tetrazol-1-yl)propan-2-yl)oxy)-4-chlorophenyl)-N-(1-methyl-5-(trifluoromethyl)-1H-pyrazol-3-yl)pyrimidin-2-amine] to `CC(C(N)=O)n1cc(Nc2ncc(-c3ccc(Cl)c(O[C@@H](C)Cn4cnnn4)c3)cn2)c(C(F)(F)F)n1` (stereo partly drawn) [Example 713, 2-(4-((5-(3-(((S)-1-(1H-tetrazol-1-yl)propan-2-yl)oxy)-4-chlorophenyl)pyrimidin-2-yl)amino)-3-(trifluoromethyl)-1H-pyrazol-1-yl)propanamide], the IC50 falls from ≥ 100 nM to < 10 nM.

`Cc1ncc(N2CC(CN3CCOCC3)C2)cc1Nc1ncc(-c2ccc(Cl)c(O[C@@H](C)Cn3cnnn3)c2)cn1` [Example 610, (S)-5-(3-((1-(1H-tetrazol-1-yl)propan-2-yl)oxy)-4-chlorophenyl)-N-(2-methyl-5-(3-(morpholinomethyl)azetidin-1-yl)pyridin-3-yl)pyrimidin-2-amine] and `COc1cc(N2CCOC(CN(C)C)C2)ccc1Nc1ncc(-c2ccc(Cl)c(O[C@@H](C)Cn3cnnn3)c2)cn1` (stereo partly drawn) [Example 615, 5-(3-(((S)-1-(1H-tetrazol-1-yl)propan-2-yl)oxy)-4-chlorophenyl)-N-(4-(2-((dimethylamino)methyl)morpholino)-2-methoxyphenyl)pyrimidin-2-amine] cannot be ordered by IC50: < 10 nM for the first, < 10 nM for the second.

`COc1cc(N2CCNC[C@@H]2C)ccc1Nc1ncc(-c2ccc(Cl)c(O[C@@H](C)Cn3cnnn3)c2)cn1` [Example 649, 5-(3-(((S)-1-(1H-tetrazol-1-yl)propan-2-yl)oxy)-4-chlorophenyl)-N-(2-methoxy-4-((S)-2-methylpiperazin-1-yl)phenyl)pyrimidin-2-amine] and `C[C@@H](Cn1cnnn1)Oc1cc(-c2cnc(Nc3cn(C4CCNCC4)nc3OCC(F)(F)F)nc2)ccc1Cl` [Example 676, (S)-5-(3-((1-(1H-tetrazol-1-yl)propan-2-yl)oxy)-4-chlorophenyl)-N-(1-(piperidin-4-yl)-3-(2,2,2-trifluoroethoxy)-1H-pyrazol-4-yl)pyrimidin-2-amine] cannot be ordered by IC50: < 10 nM for the first, < 10 nM for the second.

From patent publication US10543212B2, “Substituted amines for treating cardiac diseases” (Cardurion Pharmaceuticals, LLC, priority 2017, dated 2020)
